Data reported in US10550112B2, “Pyrimidines as EGFR inhibitors and methods of treating disorders” (Dana-Farber Cancer Institute, Inc., priority 2015, dated 2020).

Experiments:
Assay type in all cases: cell-based, Murine
[1] = molecular target: EGFR InsGY Ba/F3 cell line (Homo sapiens, UniProt P00533, DELINS770-770GY, cells depend on it); test: Ba/F3 cell proliferation MTS assay, EGFR InsGY; conditions: EGFR InsGY (D770delinsGY) Ba/F3 cells, 72 hours
Description: (§1) Different EGFR exon 20 insertion mutations were introduced via site directed mutagenesis into full length EGFR using the Quick Change Site-Directed Mutagenesis kit (Stratagene; La Jolla, Calif.) according to the manufacturer's instructions. All constructs were confirmed by DNA sequencing. The constructs were shuttled into the retroviral vector JP1540 using the BD Creator™ System (BD Biosciences). […] Stable clones were obtained by selection in puromycin (2 μg/ml) and growth in IL-3 free media.
(§2) Murine Ba/F3 cells engineered to express mutant and wild type EGFR or HER2 protein were used to perform single drug screens. Cell viability was assessed after 72 hours of compound exposure using the colorimetric cell proliferation MTS assay kit (Promega).
(§3) The curves were fitted using a non-linear regression model with a sigmoidal dose response.

[2] = molecular target: EGFR InsASV Ba/F3 cell line (Homo sapiens, UniProt P00533, DUP767-769, cells depend on it); test: Ba/F3 cell proliferation MTS assay, EGFR InsASV; conditions: EGFR InsASV (V769_D770insASV) Ba/F3 cells, 72 hours
Description: as §1, §2, §3

[3] = molecular target: EGFR wild type Ba/F3 cell line (Homo sapiens, UniProt P00533, cells depend on it, form not given); test: Ba/F3 cell proliferation MTS assay, EGFR wild type; conditions: 72 hours
[4] = molecular target: HER2 InsYVMA Ba/F3 cell line (Homo sapiens, UniProt P04626, DUP772-775, cells depend on it); test: Ba/F3 cell proliferation MTS assay, HER2 InsYVMA; conditions: 72 hours;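 further: murine Ba/F3 cells engineered to carry mutant HER2, viability read colorimetrically by MTS after 72 h of exposure, EC50 from sigmoidal non-linear regression of dose response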
Description: as §2, §3

[5] = molecular target: HER2 wild type Ba/F3 cell line (Homo sapiens, UniProt P04626); test: Ba/F3 cell proliferation MTS assay, HER2 wild type; conditions: HER2 wild type Ba/F3 cells, 72 hours
Description: as §2, §3

[6] = molecular target: EGFR InsSVD Ba/F3 cell line (Homo sapiens, UniProt P00533, DUP768-770, cells depend on it); test: Ba/F3 cell proliferation MTS assay, EGFR InsSVD; conditions: EGFR InsSVD (D770_N771insSVD) Ba/F3 cells, 72 hours
Sequence of EGFR InsSVD Ba/F3 cell line (P00533 with tags, fused parts or gaps DUP768-770): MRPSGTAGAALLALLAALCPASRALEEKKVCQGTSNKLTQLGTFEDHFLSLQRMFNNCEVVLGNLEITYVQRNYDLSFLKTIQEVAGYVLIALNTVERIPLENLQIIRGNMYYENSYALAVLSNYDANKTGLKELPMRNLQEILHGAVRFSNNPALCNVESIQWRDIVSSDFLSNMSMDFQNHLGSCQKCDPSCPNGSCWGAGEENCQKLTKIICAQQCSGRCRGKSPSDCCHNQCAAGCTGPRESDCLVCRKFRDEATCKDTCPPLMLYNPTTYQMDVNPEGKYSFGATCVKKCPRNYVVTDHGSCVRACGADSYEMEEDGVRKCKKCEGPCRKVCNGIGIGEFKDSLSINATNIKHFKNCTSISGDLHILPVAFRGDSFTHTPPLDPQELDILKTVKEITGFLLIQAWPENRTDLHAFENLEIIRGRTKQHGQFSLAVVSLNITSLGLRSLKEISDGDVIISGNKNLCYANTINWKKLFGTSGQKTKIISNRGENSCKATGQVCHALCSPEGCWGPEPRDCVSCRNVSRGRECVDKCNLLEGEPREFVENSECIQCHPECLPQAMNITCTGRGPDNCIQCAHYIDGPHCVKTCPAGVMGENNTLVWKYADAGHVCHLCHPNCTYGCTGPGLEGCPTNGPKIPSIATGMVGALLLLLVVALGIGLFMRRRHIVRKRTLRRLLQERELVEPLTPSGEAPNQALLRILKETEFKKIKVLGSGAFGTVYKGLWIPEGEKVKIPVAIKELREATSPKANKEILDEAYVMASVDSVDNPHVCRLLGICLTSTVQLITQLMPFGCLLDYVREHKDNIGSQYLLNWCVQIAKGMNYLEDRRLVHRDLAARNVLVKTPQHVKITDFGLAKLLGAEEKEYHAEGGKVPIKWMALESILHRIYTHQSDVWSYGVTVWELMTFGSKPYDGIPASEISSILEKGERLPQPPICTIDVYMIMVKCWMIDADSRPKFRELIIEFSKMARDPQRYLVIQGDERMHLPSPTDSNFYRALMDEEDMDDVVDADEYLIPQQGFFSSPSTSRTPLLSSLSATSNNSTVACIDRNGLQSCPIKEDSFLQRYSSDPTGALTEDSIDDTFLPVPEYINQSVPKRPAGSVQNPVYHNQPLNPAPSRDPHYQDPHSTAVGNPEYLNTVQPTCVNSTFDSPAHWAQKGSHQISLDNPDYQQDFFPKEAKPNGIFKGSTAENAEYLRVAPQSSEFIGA
Description: as §1, §2, §3

Sequence of EGFR wild type Ba/F3 cell line (P00533 whole entry, stated change not applied): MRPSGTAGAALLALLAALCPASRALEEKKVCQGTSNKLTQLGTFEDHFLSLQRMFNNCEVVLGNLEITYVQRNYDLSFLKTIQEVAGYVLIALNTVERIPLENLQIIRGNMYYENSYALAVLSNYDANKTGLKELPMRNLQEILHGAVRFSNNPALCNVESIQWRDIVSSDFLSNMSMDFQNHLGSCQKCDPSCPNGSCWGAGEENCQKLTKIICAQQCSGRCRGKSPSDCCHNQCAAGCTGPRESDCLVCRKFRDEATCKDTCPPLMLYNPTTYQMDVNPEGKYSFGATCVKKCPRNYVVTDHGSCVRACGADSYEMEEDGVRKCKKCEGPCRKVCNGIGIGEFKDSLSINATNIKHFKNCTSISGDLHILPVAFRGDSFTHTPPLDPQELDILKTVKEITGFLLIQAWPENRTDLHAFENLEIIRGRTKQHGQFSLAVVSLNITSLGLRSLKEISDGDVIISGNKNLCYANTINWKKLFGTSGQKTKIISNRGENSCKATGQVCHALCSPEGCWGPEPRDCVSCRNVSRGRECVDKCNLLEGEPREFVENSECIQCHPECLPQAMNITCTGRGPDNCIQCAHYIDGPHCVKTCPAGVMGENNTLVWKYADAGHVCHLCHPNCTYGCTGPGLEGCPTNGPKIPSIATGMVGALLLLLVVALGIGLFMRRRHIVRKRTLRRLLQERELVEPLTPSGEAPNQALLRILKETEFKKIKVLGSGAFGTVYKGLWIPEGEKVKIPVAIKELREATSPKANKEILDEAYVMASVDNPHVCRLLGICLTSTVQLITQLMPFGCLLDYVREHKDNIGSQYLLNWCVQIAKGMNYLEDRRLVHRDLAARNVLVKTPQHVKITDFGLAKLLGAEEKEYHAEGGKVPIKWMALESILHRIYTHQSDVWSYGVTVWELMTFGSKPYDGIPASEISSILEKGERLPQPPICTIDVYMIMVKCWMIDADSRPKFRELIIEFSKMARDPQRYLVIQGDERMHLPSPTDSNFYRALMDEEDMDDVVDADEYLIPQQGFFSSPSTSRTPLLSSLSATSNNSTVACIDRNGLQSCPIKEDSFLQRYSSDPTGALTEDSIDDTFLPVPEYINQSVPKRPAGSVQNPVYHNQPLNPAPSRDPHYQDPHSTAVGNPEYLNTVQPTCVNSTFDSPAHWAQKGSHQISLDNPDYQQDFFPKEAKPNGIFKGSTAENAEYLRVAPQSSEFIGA
Sequence of HER2 InsYVMA Ba/F3 cell line (P04626 with tags, fused parts or gaps DUP772-775): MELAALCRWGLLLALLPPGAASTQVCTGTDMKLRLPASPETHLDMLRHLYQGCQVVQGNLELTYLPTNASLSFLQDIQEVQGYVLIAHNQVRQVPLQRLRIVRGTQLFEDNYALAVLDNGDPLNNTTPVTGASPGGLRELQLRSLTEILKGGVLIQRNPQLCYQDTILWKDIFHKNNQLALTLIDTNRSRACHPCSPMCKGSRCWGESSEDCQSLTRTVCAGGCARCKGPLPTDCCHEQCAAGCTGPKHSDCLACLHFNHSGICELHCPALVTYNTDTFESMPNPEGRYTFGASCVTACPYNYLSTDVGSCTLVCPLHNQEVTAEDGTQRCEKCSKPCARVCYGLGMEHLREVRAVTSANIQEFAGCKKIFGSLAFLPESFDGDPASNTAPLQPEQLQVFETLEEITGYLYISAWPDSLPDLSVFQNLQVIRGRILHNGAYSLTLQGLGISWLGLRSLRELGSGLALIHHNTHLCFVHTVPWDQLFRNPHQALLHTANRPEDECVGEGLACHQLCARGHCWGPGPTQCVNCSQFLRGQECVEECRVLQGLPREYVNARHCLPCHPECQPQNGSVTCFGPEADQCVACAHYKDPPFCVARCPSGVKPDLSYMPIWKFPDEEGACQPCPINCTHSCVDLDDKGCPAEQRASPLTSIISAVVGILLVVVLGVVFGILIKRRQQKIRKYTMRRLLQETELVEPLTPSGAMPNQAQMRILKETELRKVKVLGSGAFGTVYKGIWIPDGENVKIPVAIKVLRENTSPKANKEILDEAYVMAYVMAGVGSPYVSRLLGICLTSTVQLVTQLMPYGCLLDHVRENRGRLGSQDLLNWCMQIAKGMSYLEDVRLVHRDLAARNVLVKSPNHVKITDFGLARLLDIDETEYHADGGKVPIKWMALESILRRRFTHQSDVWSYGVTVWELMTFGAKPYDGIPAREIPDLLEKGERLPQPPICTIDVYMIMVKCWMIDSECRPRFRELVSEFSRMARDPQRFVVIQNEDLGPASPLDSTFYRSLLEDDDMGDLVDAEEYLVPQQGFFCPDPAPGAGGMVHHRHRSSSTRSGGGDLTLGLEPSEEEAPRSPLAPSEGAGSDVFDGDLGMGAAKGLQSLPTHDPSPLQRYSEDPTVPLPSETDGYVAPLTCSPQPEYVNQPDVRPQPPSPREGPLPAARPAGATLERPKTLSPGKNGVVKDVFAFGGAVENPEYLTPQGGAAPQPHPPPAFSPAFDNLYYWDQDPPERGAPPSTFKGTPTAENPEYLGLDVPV
Sequence of HER2 wild type Ba/F3 cell line (P04626 whole entry, stated change not applied): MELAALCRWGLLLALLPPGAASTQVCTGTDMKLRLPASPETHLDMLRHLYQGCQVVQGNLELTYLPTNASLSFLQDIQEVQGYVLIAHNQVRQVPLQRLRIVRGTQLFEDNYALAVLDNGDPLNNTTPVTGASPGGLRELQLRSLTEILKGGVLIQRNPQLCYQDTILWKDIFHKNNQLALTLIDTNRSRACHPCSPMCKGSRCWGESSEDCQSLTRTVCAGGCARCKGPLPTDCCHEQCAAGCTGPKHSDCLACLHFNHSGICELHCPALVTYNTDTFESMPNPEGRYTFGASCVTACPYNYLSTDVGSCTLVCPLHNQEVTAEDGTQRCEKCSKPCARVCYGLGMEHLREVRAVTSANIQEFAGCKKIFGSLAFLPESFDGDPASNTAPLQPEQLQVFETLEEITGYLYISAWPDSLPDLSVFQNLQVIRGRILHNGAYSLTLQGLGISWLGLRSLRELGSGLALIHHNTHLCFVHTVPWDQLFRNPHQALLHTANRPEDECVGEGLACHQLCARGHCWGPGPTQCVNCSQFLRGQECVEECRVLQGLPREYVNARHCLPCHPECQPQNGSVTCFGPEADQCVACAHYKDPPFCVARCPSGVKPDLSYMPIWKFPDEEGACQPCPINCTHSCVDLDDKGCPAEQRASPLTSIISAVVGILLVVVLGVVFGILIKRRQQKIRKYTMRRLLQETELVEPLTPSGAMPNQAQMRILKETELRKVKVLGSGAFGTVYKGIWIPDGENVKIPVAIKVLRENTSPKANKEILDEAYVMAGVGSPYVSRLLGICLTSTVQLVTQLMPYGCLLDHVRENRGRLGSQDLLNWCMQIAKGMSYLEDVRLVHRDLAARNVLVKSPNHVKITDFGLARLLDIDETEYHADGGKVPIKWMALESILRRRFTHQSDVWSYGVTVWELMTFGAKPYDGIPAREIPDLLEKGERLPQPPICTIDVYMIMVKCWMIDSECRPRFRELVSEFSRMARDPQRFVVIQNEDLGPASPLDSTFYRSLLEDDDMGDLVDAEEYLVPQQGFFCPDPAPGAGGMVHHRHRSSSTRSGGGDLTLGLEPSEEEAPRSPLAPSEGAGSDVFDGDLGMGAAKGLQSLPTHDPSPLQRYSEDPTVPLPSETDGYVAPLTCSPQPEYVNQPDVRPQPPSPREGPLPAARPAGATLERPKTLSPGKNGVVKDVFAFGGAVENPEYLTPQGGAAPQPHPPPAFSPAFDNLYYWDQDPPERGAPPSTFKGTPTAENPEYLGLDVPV

SMILES | EC50 [1] [nM] | EC50 [2] [nM] | EC50 [3] [nM] | EC50 [4] [nM] | EC50 [5] [nM] | EC50 [6] [nM]
C=CC(=O)Nc1cccc(N(C(=O)OCc2ccc(F)cn2)c2ccnc(Nc3cnn(C)c3)n2)c1 [Compound I-11, (5-fluoropyridin-2-yl)methyl (3-acrylamidophenyl)(2-((1-methyl-1H-pyrazol-4-yl)amino)pyrimidin-4-yl)carbamate] | 500 to 1000 | > 1000 | < 100 | 500 to 1000 | 100 to 500 | 500 to 1000
C=CC(=O)Nc1cccc(N(C(=O)OCc2csc3ccccc23)c2ccnc(Nc3cnn(C)c3)n2)c1 [Compound I-19, benzo[b]thiophen-3-ylmethyl (3-acrylamidophenyl)(2-((1-methyl-1H-pyrazol-4-yl)amino)pyrimidin-4-yl)carbamate] | > 1000 | > 1000 | 100 to 500 | > 1000 | 100 to 500 | > 1000
C=CC(=O)Nc1cccc(N(C(=O)OCc2ccc(F)cn2)c2ccnc(Nc3ccn(C)n3)n2)c1 [Compound I-10, (5-fluoropyridin-2-yl)methyl (3-acrylamidophenyl)(2-((1-methyl-1H-pyrazol-3-yl)amino)pyrimidin-4-yl)carbamate] | 500 to 1000 | 500 to 1000 | < 100 | 500 to 1000 | 100 to 500 | 100 to 500
C=CC(=O)Nc1cccc(N(C(=O)OCc2ccc(F)nc2)c2ccnc(Nc3cnn(C)c3)n2)c1 [Compound I-13, (6-fluoropyridin-3-yl)methyl (3-acrylamidophenyl)(2-((1-methyl-1H-pyrazol-4-yl)amino)pyrimidin-4-yl)carbamate] | > 1000 | > 1000 | 100 to 500 | > 1000 | 100 to 500 | > 1000
C=CC(=O)Nc1cccc(N(C(=O)O[C@H](C)c2ccc(F)cc2)c2ccnc(Nc3ccn(C)n3)n2)c1 [Compound I-14, (R)-1-(4-fluorophenyl)ethyl (3-acrylamidophenyl)(2-((1-methyl-1H-pyrazol-3-yl)amino)pyrimidin-4-yl)carbamate] | 500 to 1000 | > 1000 | 100 to 500 | – | 500 to 1000 | 500 to 1000
C=CC(=O)Nc1cccc(N(C(=O)OCc2ccc(Cl)cc2)c2ccnc(Nc3ccn(C)n3)n2)c1 [Compound I-8, 4-chlorobenzyl (3-acrylamidophenyl)(2-((1-methyl-1H-pyrazol-3-yl)amino)pyrimidin-4-yl)carbamate] | 100 to 500 | > 1000 | 100 to 500 | > 1000 | 100 to 500 | > 1000
C=CC(=O)Nc1cccc(N(C(=O)OCc2ccc(F)nc2)c2ccnc(Nc3ccn(C)n3)n2)c1 [Compound I-12, (6-fluoropyridin-3-yl)methyl (3-acrylamidophenyl)(2-((1-methyl-1H-pyrazol-3-yl)amino)pyrimidin-4-yl)carbamate] | 500 to 1000 | > 1000 | 100 to 500 | > 1000 | 100 to 500 | 500 to 1000
C=CC(=O)Nc1cccc(N(C(=O)OCc2cc3ccccc3s2)c2ccnc(Nc3ccn(C)n3)n2)c1 [Compound I-6, benzo[b]thiophen-2-ylmethyl (3-acrylamidophenyl)(2-((1-methyl-1H-pyrazol-3-yl)amino)pyrimidin-4-yl)carbamate] | 100 to 500 | – | 500 to 1000 | > 1000 | 500 to 1000 | 500 to 1000

Second part, the compound after the results:

EC50 [1] [nM] | EC50 [2] [nM] | EC50 [3] [nM] | EC50 [4] [nM] | EC50 [5] [nM] | EC50 [6] [nM] | SMILES
100 to 500 | 500 to 1000 | < 100 | 100 to 500 | < 100 | 100 to 500 | C=CC(=O)Nc1cccc(N(C(=O)OCc2ccc(Cl)cc2)c2ccnc(Nc3cnn(C)c3)n2)c1 [Compound I-9, 4-chlorobenzyl (3-acrylamidophenyl)(2-((1-methyl-1H-pyrazol-4-yl)amino)pyrimidin-4-yl)carbamate]
< 100 | 100 to 500 | < 100 | < 100 | < 100 | < 100 | C=CC(=O)Nc1cccc(N(C(=O)O[C@@H](C)c2ccc(F)cc2)c2ccnc(Nc3cnn(C)c3)n2)c1 [Compound I-17, (S)-1-(4-fluorophenyl)ethyl (3-acrylamidophenyl)(2-((1-methyl-1H-pyrazol-4-yl)amino)pyrimidin-4-yl)carbamate]
< 100 | 100 to 500 | < 100 | < 100 | < 100 | < 100 | C=CC(=O)Nc1cccc(N(C(=O)OCc2ccccc2)c2ccnc(Nc3ccn(C)n3)n2)c1 [Compound I-1, benzyl (3-acrylamidophenyl)(2-((1-methyl-1H-pyrazol-3-yl)amino)pyrimidin-4-yl)carbamate]
100 to 500 | 500 to 1000 | < 100 | 500 to 1000 | < 100 | 100 to 500 | C=CC(=O)Nc1cccc(N(C(=O)O[C@@H](C)c2ccc(F)cc2)c2ccnc(Nc3ccn(C)n3)n2)c1 [Compound I-16, (S)-1-(4-fluorophenyl)ethyl (3-acrylamidophenyl)(2-((1-methyl-1H-pyrazol-3-yl)amino)pyrimidin-4-yl)carbamate]
< 100 | 100 to 500 | < 100 | 100 to 500 | < 100 | < 100 | C=CC(=O)Nc1cccc(N(C(=O)O[C@H](C)c2ccc(F)cc2)c2ccnc(Nc3cnn(C)c3)n2)c1 [Compound I-15, (R)-1-(4-fluorophenyl)ethyl (3-acrylamidophenyl)(2-((1-methyl-1H-pyrazol-4-yl)amino)pyrimidin-4-yl)carbamate]
